Data as given in patent US20140163026A1, “8-ETHYL-6-(ARYL)PYRIDO[2,3-D]PYRIMIDIN-7(8H)-ONES FOR THE TREATMENT OF NERVOUS SYSTEM DISORDERS AND CANCER” (Afraxis Holdings, Inc., priority 2011, published 2014).

Key:
Nf2−/− SC4 cells = experiment: Growth inhibition of NF2 deficient cells (CellTiter-Glo); assay type: cell-based, mouse; settings: 1 uM concentration for 72 hours, FIG. 4
Description: (§1) NF2 deficient cell lines were cultured in the appropriate medium. Once enough cells have propagated, plates of all adherent lines were seeded at 5,000-10,000 cells/well (depending on cell line) in a total volume of 50 μL, and plates of all suspension lines at 10,000-20,000 cells/well (depending on cell line) in a total volume of 50 μL. Plates were placed in a humidified cell culture incubator overnight to allow adherent cells to attach.
(§2) 10 mM stocks of each PAK inhibitor compound in DMSO were prepared. Dilutions were performed with media to provide 1% DMSO 2× stock solutions of each PAK inhibitor compound.
50 μL of all PAK inhibitor compound 2× stocks were added to appropriate wells already containing 50 μL of cells and medium to expose cells to the final concentrations of compounds required. 50 μL of media was added to media and cell control wells and 50 μL of mix to vehicle control wells. At the same time as drug exposure, a CTG (CellTiter-Glo Assay) assay was performed on the 0 hr plate to obtain a 0 hr count. […]
At the end of the 72 hour exposure period, plates were removed for a CTG assay from 37° C., 5% CO2 incubator and place on the bench at room temperature for 30 mins. […] Luminescence for each well was determined.
Growth inhibition percent was calculated using the following equation: (Growth %=(Sample Value−T0Ave)/(Max−T0Ave)*100). […]

NCI-H520 cells = experiment: Growth inhibition of PAK1 amplified NSCLC cells (CellTiter-Glo); assay type: cell-based; settings: 0 μM-30 μM, 72 hours, FIG. 9
Description: as §1, with “The PAK1 amplified” for “NF2 deficient”
as §2
(§3) 50 μL of media was added to media and cell control wells and 50 μL of mix to vehicle control wells. At the same time as drug exposure, a CTG (CellTiter-Glo Assay) assay was performed on the 0 hr plate to obtain a 0 hr count. Cells were exposed to PAK inhibitor compounds or a DMSO control for 72 hours. Following the 72 hour exposure period, all remaining plates were assayed using CTG.
(§4) At the end of the 72 hour exposure period, plates were removed for a CTG assay from 37° C., 5% CO2 incubator and place on the bench at room temperature for 30 mins. 100 μL CTG reagent was added to each well, mixed for 2 minutes, followed by a further 10 minute incubation at room temperature. Luminescence for each well was determined.
(§5) Growth inhibition percent was calculated using the following equation: (Growth %=(Sample Value−T0Ave)/(Max−T0Ave)*100).

SK-MES-1 cells = experiment: as above; assay type: cell-based; settings: 0 μM-30 μM, 72 hours, FIG. 10
Description: as §1, with “The PAK1 amplified” for “NF2 deficient”
as §2, §3, §4, §5

EBC-1 cells = experiment: as above; assay type: cell-based; settings: 0 μM-30 μM, 72 hours, FIG. 8
Description: as §1, with “The PAK1 amplified” for “NF2 deficient”
as §2, §3, §4, §5

[1] = system: NF2−/− mesothelioma cells (NCI-H226); experiment: Growth inhibition of NF2 deficient cells (CellTiter-Glo); assay type: cell-based; settings: 0 μM-30 μM, 72 hours, FIG. 7
Description: as §1, §2
50 μL of all PAK inhibitor compound 2× stocks were added to appropriate wells already containing 50 μL of cells and medium to expose cells to the final concentrations of compounds required. 50 μL of media was added to media and cell control wells and 50 μL of mix to vehicle control wells. At the same time as drug exposure, a CTG (CellTiter-Glo Assay) assay was performed on the 0 hr plate to obtain a 0 hr count. Cells were exposed to PAK inhibitor compounds or a DMSO control for 72 hours. Following the 72 hour exposure period, all remaining plates were assayed using CTG.
as §4, §5
NF2^−/− mesothelioma cells (e.g., NCI-H226 cells) were treated with varying concentrations of a PAK inhibitor compound disclosed in Examples 33, 84, or 122.

[2] = system: Nf2−/− SC4 cells transplanted into the sciatic nerve sheath of NOD/SCID mice; experiment: Orthotopic NF2 deficient schwannoma mouse model, tumor weight; assay type: in vivo; settings: intraneural Nf2−/− cells, FIG. 5
From the text: The NF2 protein is absent in ˜100% of sporadic schwannomas. Thus, an NF2 deficient-schwanoma mouse model was generated and used to evaluate treatment of sporadic schwannomas with a PAK inhibitor compound disclosed herein.
Murine Nf2^−/− cells may be generated by various means. For example, NF2^−/− cells may be generated by administering an shRNA or siRNA targeting an Nf2 gene, thereby disrupting the Nf2 gene. In another example, NF2^−/− cells may be generated by using a Cre recombinase.
Nf2^−/− SC4 cells may be generated by using a Cre recombinase. Pure populations of embryonic SC4 cells were isolated from Nf 2^loxP/loxP− mice at about embryonic day 13.5. […]
Nf2^−/− cells (e.g., Nf2^−/− SC4 control cells) were transduced by lentiviruses carrying pLuc-mCherry and sorted by FACS. […] Tumor progression was monitored weekly by bioluminescence imaging (BLI) according to the manufacturer's instructions on an IVIS-200 system. The mice were sacrificed and the tumors from the vehicle control treated and PAK inhibitor treated mice were measured.
NF2^−/− cells (e.g., Nf2^−/− SC4 control cells) were transduced by lentiviruses carrying pLuc-mCherry and sorted by FACS. […] Tumor progression was monitored weekly by bioluminescence imaging (BLI) according to the manufacturer's instructions on an IVIS-200 system. […]
At various time points, treatment efficacy was determined. […]

Row | SMILES | cell number compared to DMSO control treated cells (Nf2−/− SC4 cells) | growth (%) with increasing concentration (NCI-H520 cells) | growth (%) with increasing concentration (SK-MES-1 cells) | growth (%) with increasing concentration (EBC-1 cells) | growth (%) with increasing concentration [1] | average tumor weight versus vehicle control treated mice [2]
1 | CCn1c(=O)c(-c2ccc(-c3cccnc3F)cc2Cl)cc2cnc(Nc3ccc(N4CCN(C)CC4)cc3)nc21 [Example 33] | reduction in cell number | the growth (%) decreased | the growth (%) decreased | the growth (%) decreased | the growth (%) of the cells reduced | –
2 | CCn1c(=O)c(-c2ccc(-c3cncs3)cc2Cl)cc2cnc(Nc3ccc(N4CCN(C)CC4)cc3)nc21 [Example 84] | reduction in cell number | – | – | – | the growth (%) of the cells reduced | less than the average tumor weight of the vehicle control treated mice
